Measurements taken from article PMC7190177, “Click chemistry-facilitated comprehensive identification of proteins adducted by antimicrobial 5-nitroimidazoles for discovery of alternative drug targets against giardiasis” (PLoS Neglected Tropical Diseases, 2020).

Columns and labels:
Enolase = molecular target: T1, Enolase (Giardia duodenalis, UniProt E2RTS6); assay: click biotinylation, streptavidin pull-down from treated trophozoites, LC-MS/MS and immunoblot; type: cell-based; details: covalent; prodrug reduced in the cells; 100 uM, 2 h
T1 construct: gene GL50803_0011118; native protein in trophozoites, 445 aa
T1 sequence (E2RTS6 1-445): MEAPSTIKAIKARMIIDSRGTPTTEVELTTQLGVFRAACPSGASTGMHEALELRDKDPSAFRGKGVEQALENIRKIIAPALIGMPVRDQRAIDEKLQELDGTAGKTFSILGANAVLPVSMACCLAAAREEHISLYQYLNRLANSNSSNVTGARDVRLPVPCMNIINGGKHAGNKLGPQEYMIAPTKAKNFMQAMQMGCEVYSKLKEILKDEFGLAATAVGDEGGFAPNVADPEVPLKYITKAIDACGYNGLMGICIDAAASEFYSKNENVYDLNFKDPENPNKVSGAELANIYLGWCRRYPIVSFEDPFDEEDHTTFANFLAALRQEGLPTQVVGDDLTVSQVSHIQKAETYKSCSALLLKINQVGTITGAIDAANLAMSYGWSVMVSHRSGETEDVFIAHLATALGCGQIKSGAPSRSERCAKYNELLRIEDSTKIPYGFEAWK

Arginine deiminase (ADI) = molecular target: T2, Arginine deiminase (ADI) (Giardia duodenalis, UniProt E2RU36); assay: colorimetric citrulline-detection assay of recombinant His-tagged ADI; type: biochemical; details: 500 uM Mz-alkyne + 1 mM dithionite (reductive activation of prodrug), 2 h; 1 mM arginine, Hepes pH 7.0, 37 C; covalent
T2 construct: gene GL50803_00112103; full-length 580 aa, C-terminal His tag (pETite C-His), E. coli BL21-CodonPlus(DE3)-RIL
T2 sequence (E2RU36 entry or part of it): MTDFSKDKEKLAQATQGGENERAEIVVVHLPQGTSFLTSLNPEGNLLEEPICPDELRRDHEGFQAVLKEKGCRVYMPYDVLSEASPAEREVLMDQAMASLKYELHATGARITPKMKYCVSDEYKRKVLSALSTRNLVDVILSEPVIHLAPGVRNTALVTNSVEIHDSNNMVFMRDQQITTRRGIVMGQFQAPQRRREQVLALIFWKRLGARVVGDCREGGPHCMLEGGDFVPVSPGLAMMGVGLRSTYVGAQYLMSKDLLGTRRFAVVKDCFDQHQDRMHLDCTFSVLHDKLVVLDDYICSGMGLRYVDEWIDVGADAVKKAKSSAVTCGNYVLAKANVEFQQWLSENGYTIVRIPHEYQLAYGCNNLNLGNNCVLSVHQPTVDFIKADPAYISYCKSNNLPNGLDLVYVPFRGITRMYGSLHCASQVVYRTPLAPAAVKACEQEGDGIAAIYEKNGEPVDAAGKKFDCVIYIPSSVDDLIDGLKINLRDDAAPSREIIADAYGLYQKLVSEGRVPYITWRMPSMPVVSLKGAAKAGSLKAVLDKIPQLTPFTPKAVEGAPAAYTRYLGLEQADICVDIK

[1] = molecular target: T3, Ornithine carbamoyltransferase (OCT) (Giardia duodenalis, UniProt E2RTT6); assay: click biotinylation, streptavidin pull-down from treated trophozoites, LC-MS/MS and immunoblot; type: cell-based; details: covalent; prodrug reduced in the cells; 100 uM, 2 h
T3 construct: gene GL50803_0010311; native protein in trophozoites, 327 aa
T3 sequence (E2RTT6 1-327): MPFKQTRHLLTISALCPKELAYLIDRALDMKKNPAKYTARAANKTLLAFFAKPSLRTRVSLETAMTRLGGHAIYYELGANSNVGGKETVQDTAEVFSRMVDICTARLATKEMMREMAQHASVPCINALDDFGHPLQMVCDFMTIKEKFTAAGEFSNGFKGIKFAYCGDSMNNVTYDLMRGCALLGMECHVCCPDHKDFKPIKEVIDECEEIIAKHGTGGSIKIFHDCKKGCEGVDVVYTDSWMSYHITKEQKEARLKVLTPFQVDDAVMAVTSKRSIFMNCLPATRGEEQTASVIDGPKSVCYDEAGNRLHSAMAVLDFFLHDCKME

Q: How did the adduct (Enolase) turn out when `C#CCCn1c([N+](=O)[O-])cnc1C` [Mz-alkyne, 1-(But-3-ynyl)-2-methyl-5-nitro-1H-imidazole] was run?
A: The adduct was “these proteins were labeled with biotin and thus adducted by Mz-alkyne”.

Q: And the inhibition (Arginine deiminase (ADI))?
A: Its inhibition is “Wild-type ADI was significantly inhibited by activated Mz-alkyne under cell-free conditions”.

Q: What about the adduct [1] of the same molecule?
A: Its adduct is “these proteins were labeled with biotin and thus adducted by Mz-alkyne”.
